Data from patent US12357702B2, “Peptidic diagnostic compositions” (S. M. Discovery Group Inc., priority 2013, dated 2025).
Where a SMILES comes first, the peptide text is derived from it. Where no end group is shown, it is not given here. The star is where a group is joined. RhodamineB = CCN(CC)c1ccc2c(-c3ccccc3C(=O)*)c3ccc(=[N+](CC)CC)cc-3oc2c1; 5FAM = O=C1OC2(c3ccc(O)cc3Oc3cc(O)ccc32)c2ccc(C(=O)*)cc21; FAM = fluorescein amidite label

How the values were obtained:
hCMEC/D3 cells [1] = experiment: LDH cytotoxicity assay; format: cell-based, human; conditions: 24 h; for LDH leakage in the medium compared to the control: 1 to 20 μM peptide
Experimental: Cell viability assessment following treatment of cells with the fluorescent peptide FIG. 26A or siRNA/FAM-CGY complex FIG. 26B for 24 h, determined by LDH assay (n=6). Background: untreated cells. To examine the cytotoxicity of the peptide and the siRNA/FAM-CGY complex, the hCMEC/D3 cells were incubated with concentrations 1, 2, 5, 10, 20 μM of the peptide and different relations of siRNA/FAM-CGY complexes (8:5, 16:5 or 24:5) for 24 h, the viability of cells without treatment was used as a control. The cytotoxicity was measured by a LDH assay. The LDH assay measures the membrane integrity as a function of the amount of cytoplasmic LDH leaked into the medium.
The cytoxicity of FAM-CGY peptide and siRNA/FAM-CGY complex was evaluated by […] (LDH) assay (FIG. 26). The hCMEC/D3 cells were incubated with different concentrations of the peptide (from 1 to 20 μM) and different formulations of siRNA/FAM-CGY complexes for 24 h. The viability of cells without treatment was used as a control. The LDH assay has means of measuring the membrane integrity as a function of the amount of cytoplasmic LDH leaked into the medium. […] Thus, there were no significant differences observed between the groups treated with FAM-CGY, FAM-d-CGY and CGY-FAM.

[2] = test system: complement activation products SC5d-9, C5a, and C3a; experiment: complement activation in human serum; conditions: healthy human serum, low and high concentration
Experimental: FIGS. 12A, 12B, and 12C are graphs illustrating a complement activation experiment. The complement activation products FIG. 12A. […], FIG. 12B. C5a, and FIG. 12C. C3a were quantified in healthy human serum after incubation of CGY, FAM-CGY and FAM-d-CGY peptide at low and high concentration. Background noise and positive control (Zymosan) are presented for each product. Complement activation and fixation is a fundamental process contributing to macrophage clearance of intravenously injected nanopaticles. Accordingly, complement activation studies in human serum were performed with low and high concentrations of FAM-CGY peptide and other peptides (CGY, FAM-d-CGY) for comparison. […] The responses were relatively low, and close to the background activation. Only a slight level of complement activation was observed compared to the positive control (Zymosan). There were no systematic differences between the activation below and above CMC. Conclusion: The FAM-CGY nanoparticles are unlikely to induce complement-mediated immune reactions following intravenous injection.

hCMEC/D3 cells [3] = experiment: uptake of FAM-CGY and FAM-GYR-GYR peptides by FACS; format: cell-based, human; conditions: 1-10 μM, 24 h, all tested concentrations
Experimental: The different cellular uptake of FAM-CGY and FAM-GYR-GYR peptides in hCMEC/D3 cells was investigated by flow cytometry (FACS). hCMEC/D3 cells (2×10^4/cm^2) were seeded on 24-well plate (Corning, NY) and grown 2 days at 37° C. and 5% CO2 in order to reach 60%-70% confluency. The cells were washed 3 times with pre-heated PBS. The peptide uptake experiments were initiated by adding 200 μL of a range of FAM-CGY and FAM-GYR-GYR in different concentrations (1-10 μM/L, diluted in cell medium containing serum). The double peptide contains the sequence […](SEQ ID NO: 2) and optionally has an N-terminal cysteine residue.
After 24 h incubation at 37° C. with 5% CO2, each chamber was washed with pre-heated PBS 3 times, and harvested by trypsinization. A total of 10,000 cells were analyzed by flow cytometry (FACS Array™ Cell Analysis, BD, USA) (FIG. 35).

[4] = test system: brain capillary endothelial cells; conditions: cited from earlier work
hCMEC/D3 cells [5] = experiment: double peptide-mediated GFP plasmid transfection; format: cell-based, human
Experimental: To evaluate double peptide (DP)-mediated gene transfection, different concentrations of DP and constant amounts of pcDNA3.1 NT-GFP expression plasmid (0.3 μg) (the peptide/DNA change ration of 1:10, 1:20 and 1:40 were investigated in this study) were mixed into 50 μL serum free media, and complexes were formed for 1 h at room temperature, after which another 150 μL serum free media was added (total volume of peptide/DNA complex was 200 μL). The cultured hCMEC/D3 cells (2×10^4 cells) were overlaid with 200 μL peptide/DNA complex, followed by incubation for 4 h at 37° C. in 5% CO2 atmosphere. The cultures were then a washed once with serum-free media and transferred to complete media containing 5% serum for growth. After 48 h, GFP gene expressions were monitored by fluorescence microscopy. Lipofectamine® 2000-mediated transfections were performed as described by the manufacturer's protocol (Life Technologies, CA, USA).

[6] = Nanoparticle Tracking Analysis (NTA) of peptide self-assembly; format: physicochemical; conditions: in MQ water
Experimental: To investigate whether the polypeptide conjugate can self-assemble, Nanoparticle Tracking Analysis (NTA) technology was employed to detect the peptide aggregation. Briefly, 1 mL peptide solutions with different concentrations (0.5, 1, 2.5 and 5 μM) were prepared by diluting the peptide stock solutions (500 μM) with MQ water and incubate for 30 min at room temperature. NTA measurements were performed with a NanoSight LM20 (NanoSight Ltd., Amesbury, United Kingdom) equipped with a sample chamber with a 405 nm blue laser and a Viton fluoroelastomer O-ring. The peptide samples were injected in the sample chamber with sterile syringes (BD Discardit II, New Jersey, USA) until the liquid reached the tip of the nozzle. All measurements were performed at room temperature. For the pH effect of FAM-CGY peptide assembly, FAM-CGY stock solution (500 μM) was diluted into 5 μM with 10 mM HEPES buffer where pH values were adjusted with 1 M HCl or 1 M NaOH, respectively.
Different molar rates of siRNA were added to the FAM-CGY peptide solution (50 μM/L) dropwise in saline solution and incubated for 30 min. […] The atomic force microscopy (AFM) (FIG. 22A), nanoparticle tracking analysis (NTA) (FIG. 22B), fluorescence microscopy (not shown), dynamic light scattering (DLS) technology (not shown) and transmission electron microscopy (TEM) (FIG. 23) were employed to characterize the siRNA/FAM-CGY complex. […]

hCMEC/D3 cells [7] = experiment: delivery of cargo peptides by Rh-CGY or CGY peptidic complexes (microscopy, FACS); format: cell-based, human; conditions: 10 μM Rh-CGY or CGY peptide, 24 h
Experimental: Peptidic complexes were formed by drop addition of cargoes (FAM-(C)-NAP, FAM-GYR, FAM-NAP, FAM) to 80 μM rhodamine-conjugated CGY peptide (Rh-CGY) or 80 μM CGY peptide (Table X) in MilliQ (MQ) water with equitable liquid volume and incubated for 60 min. The mixture was diluted with MQ water to a final Rh-CGY or CGY peptide concentration of 10 μM. The peptidic complexes were characterized by NTA for size and electron microscopy (EM) for mophology. Western blot was also employed to detect disulfide bond, which form between the cargo and Rh-CGY peptide or CGY peptide. Briefly, the peptide or complex samples were loaded on 10% Bis-Tris mini gels (Invitrogen, CA, USA) and subjected to electrophoresis. The separated samples were electrophoretically transferred to PVDF membranes by use of an iBlot™ Gel Transfer Device (Life Technologies, USA). Membranes were blocked for 1 h at room temperature in 3% BSA/TBST (137 mM Sodium Chloride, 20 mM Tris, 0.1% Tween-20, pH 7.6), and incubated over night at 4° C. with HRP-Goat anti-Fluorescein antibody (diluted 1:1000 in 2% BSA/TBST). For detection, membranes were incubated with Novex® ECL Chemiluminescent Substrate Reagent Kit (Invitrogen, CA, USA).
Delivery peptide to hCMEC/D3 cells. […] Live cell images were obtained by widefield microscopy, and the intercellular fluorescence intensity was quantified by FACS.

## 5-FAM-dCys-dGly-dTyr-dArg-dPro-dVal-dHis-dAsn-dIle-dArg-dGly-dHis-dTrp-dAla-dPro-dGly [FAM-d-CGY]
hCMEC/D3 cells [1]
  LDH leakage in the medium compared to the control: did not significantly increase

## CC[C@H](C)[C@H](NC(=O)[C@H](CC(N)=O)NC(=O)[C@H](Cc1c[nH]cn1)NC(=O)[C@@H](NC(=O)[C@@H]1CCCN1C(=O)[C@H](CCCNC(=N)N)NC(=O)[C@H](Cc1ccc(O)cc1)NC(=O)CNC(=O)[C@H](CS)NC(=O)c1ccc2c(c1)C(=O)OC21c2ccc(O)cc2Oc2cc(O)ccc21)C(C)C)C(=O)N[C@@H](CCCNC(=N)N)C(=O)NCC(=O)N[C@@H](Cc1c[nH]cn1)C(=O)N[C@@H](Cc1c[nH]c2ccccc12)C(=O)N[C@@H](C)C(=O)N1CCC[C@H]1C(=O)NCC(=O)O [FAM-CGY] (5FAM-CGYRPVHNIRGHWAPG-OH)
[2]
  effect on the level of complement activation products SC5d-9, C5a, and C3a: no significant effect
hCMEC/D3 cells [1]
  LDH leakage in the medium compared to the control: did not significantly increase
  cytotoxicity (LDH assay): no significant cytotoxicity

## Cys-Gly-Tyr-Arg-Pro-Val-His-Asn-Ile-Arg-Gly-His-Trp-Ala-Pro-Gly-Lys-5-FAM (CGYRPVHNIRGHWAPGK(5FAM); not fully specified (C-terminus); printed as Cys-Gly-Tyr-Arg-Pro-Val-His-Asn-Ile-Arg-Gly-His-Trp-Ala-Pro-Gly-Lys-5-FAM) [CGY-FAM]
hCMEC/D3 cells [1]
  LDH leakage in the medium compared to the control: did not significantly increase

## FAM-GYR-GYR: FAM-labelled double peptide containing SEQ ID NO: 2, two GYR sequences joined by a glycine residue ({FAM}-GYRPVHNIRGHWAPGGGYRPVHNIRGHWAPG)
hCMEC/D3 cells [3]
  uptake compared with FAM-CGY peptide (FACS): considerably higher uptake

## GYRPVHNIRGHWAPG [SEQ ID NO: 1, targeting peptide of WO2011/005098]
[4]
  liposome uptake when peptide is coupled to liposomes: did not significantly increase liposome uptake

## GYRPVHNIRGHWAPGGGYRPVHNIRGHWAPG [DP]
hCMEC/D3 cells [5]; charge ratios of peptide/DNA more than 20
  translocation of plasmids into cells: able to mediate translocation of plasmids into cells
hCMEC/D3 cells [5]; peptide/DNA charge ratio 40:1, 48 h
  transfection efficiency (GFP fluorescence intensity): comparable with commercial transfection reagent Lipofectamine® 2000

## Rh-CGY: Rhdomine B conjugated with CGY peptide in the N-terminal (RhodamineB-CGYRPVHNIRGHWAPG)
[6]
  mean (average) size of self-assembly (NTA): 131±60 nm
  mode (modal size) of self-assembly (NTA): 94 nm
hCMEC/D3 cells [7]
  uptake / delivery of cargo into hCMEC/D3 cells: can efficiently enter the hCMEC/D3 cells
